Key:
ApoE−/− mice = assay: Atherosclerotic lesion analysis (Oil Red O) in ApoE−/− mouse model; format: in vivo; conditions: 13 weeks, p<0.01; for Area of the atherosclerotic lesion (en face lipid staining), higher than control: high-fat diet
Description: All experiments related to animals were approved by the institutional animal care and use committee of Peking University and followed the guidelines for animal experiments of the university as well as for experimental animals in China. The biological effect size of the animal experiments was based on the previous paper ([Negro Silva et al. 2017]). C57BL/6 (12 weeks old) and ApoE^−/− mice (12 weeks old) were obtained from the Beijing Vital River Laboratory Animal Technology Company. Mice used in the experiments were acclimated to the housing unit 2 weeks before they were used for experiments, and they were randomly assigned to control or TPHP treatment groups. Five animals were housed to a cage, and mice were acclimatized to the controlled environment (temperature: 22±2°C; relative humidity: 40–60%; artificial lighting: 12 h:12 h light/dark). Mice received diet and drinking water ad libitum. Body weight (BW) was measured every week during the dosing period. Forty-five C57BL/6 mice and 27 ApoE^−/− mice were used in this study. Animal protocol 1: Male C57BL/6 mice (five mice per group) were fed a basic diet (Laboratory Animal Center of the Academy of Military Medical Sciences, China). On Day 0, mice were stimulated with paraffin oil by intraperitoneal injection. From Day 1 to Day 7, mice were exposed to corn oil (control) or TPHP (dissolved in corn oil) at 40 or 200mg/kg BW by daily oral gavage. The volume of the corn oil or TPHP in corn oil administered was 5mL/kg BW. On Day 8, after the mice were anesthetized by sodium pentobarbital via intramuscular injection, peritoneal macrophages were harvested from peritoneal lavage with 4mL pre-warmed DMEM-F12 (containing 10% FBS) using a 25-gauge needle; 5–10 min later, 3–3.5mL peritoneal fluid was collected, and the cells were isolated by centrifuge at 1,000 rpm for 5 min. […] Considering that this study assessed the effects of short-term exposure to TPHP, whereas humans are exposed to TPHP over a lifelong period, the present study used exposure doses that were higher than that of human exposure from house dust. […]

[1] = Body weight of ApoE−/− mice; format: in vivo, mouse; conditions: 10 and 40 mg/kg BW, 13 weeks
Description: All experiments related to animals were approved by the institutional animal care and use committee of Peking University and followed the guidelines for animal experiments of the university as well as for experimental animals in China. The biological effect size of the animal experiments was based on the previous paper ([Negro Silva et al. 2017]). C57BL/6 (12 weeks old) and ApoE^−/− mice (12 weeks old) were obtained from the Beijing Vital River Laboratory Animal Technology Company. Mice used in the experiments were acclimated to the housing unit 2 weeks before they were used for experiments, and they were randomly assigned to control or TPHP treatment groups. Five animals were housed to a cage, and mice were acclimatized to the controlled environment (temperature: 22±2°C; relative humidity: 40–60%; artificial lighting: 12 h:12 h light/dark). Mice received diet and drinking water ad libitum. Body weight (BW) was measured every week during the dosing period. Forty-five C57BL/6 mice and 27 ApoE^−/− mice were used in this study. […] Considering that this study assessed the effects of short-term exposure to TPHP, whereas humans are exposed to TPHP over a lifelong period, the present study used exposure doses that were higher than that of human exposure from house dust. […]

## O=P(Oc1ccccc1)(Oc1ccccc1)Oc1ccccc1 [TPHP, triphenyl phosphate]
ApoE−/− mice; 10 and 40 mg/kg BW
  Atherosclerotic lesion area around the aortic root versus control: significantly higher lesion area
ApoE−/− mice; 10 mg/kg BW oral gavage
  Area of the atherosclerotic lesion (en face lipid staining), higher than control: 41%
ApoE−/− mice; 40 mg/kg BW oral gavage
  Area of the atherosclerotic lesion (en face lipid staining), higher than control: 83%
[1]
  Body weight versus control: No significant differences
